Reference: patent publication US20260132129A1 (Genesis Therapeutics, Inc., priority 2022, published 2026)

Target: T1, PI3Kα H1047R (T47D cells) (Homo sapiens, UniProt P42336, H1047R)
T1 construct: endogenous in cells; host or cells: T47D cells
Test: PI3Kα cellular assay: pAKT HTRF in T47D cells after EGF stimulation
Type: cell-based
Details: for IC50: T47D cells (PI3Kα H1047R), pAKT S473 HTRF
Method in brief: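 T47D cells (PIK3CA H1047R) serum-starved 16 h, then treated 1 h at 37 °C with compound (10,000 nM top, 3-fold steps to 0.5 nM). After 10 min stimulation with 20 ng/mL EGF, cells were lysed and pAKT measured by HTRF.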

[1] = 1 hr compound, 20 ng/ml EGF 10 min
[2] = selectivity T47D (H1047R) over SKBR3 (WT), pAKT HTRF
[3] = selectivity of T47D (H1047R) over SKBR3 (WT) pAKT IC50

T1 sequence (P42336 whole entry H1047R): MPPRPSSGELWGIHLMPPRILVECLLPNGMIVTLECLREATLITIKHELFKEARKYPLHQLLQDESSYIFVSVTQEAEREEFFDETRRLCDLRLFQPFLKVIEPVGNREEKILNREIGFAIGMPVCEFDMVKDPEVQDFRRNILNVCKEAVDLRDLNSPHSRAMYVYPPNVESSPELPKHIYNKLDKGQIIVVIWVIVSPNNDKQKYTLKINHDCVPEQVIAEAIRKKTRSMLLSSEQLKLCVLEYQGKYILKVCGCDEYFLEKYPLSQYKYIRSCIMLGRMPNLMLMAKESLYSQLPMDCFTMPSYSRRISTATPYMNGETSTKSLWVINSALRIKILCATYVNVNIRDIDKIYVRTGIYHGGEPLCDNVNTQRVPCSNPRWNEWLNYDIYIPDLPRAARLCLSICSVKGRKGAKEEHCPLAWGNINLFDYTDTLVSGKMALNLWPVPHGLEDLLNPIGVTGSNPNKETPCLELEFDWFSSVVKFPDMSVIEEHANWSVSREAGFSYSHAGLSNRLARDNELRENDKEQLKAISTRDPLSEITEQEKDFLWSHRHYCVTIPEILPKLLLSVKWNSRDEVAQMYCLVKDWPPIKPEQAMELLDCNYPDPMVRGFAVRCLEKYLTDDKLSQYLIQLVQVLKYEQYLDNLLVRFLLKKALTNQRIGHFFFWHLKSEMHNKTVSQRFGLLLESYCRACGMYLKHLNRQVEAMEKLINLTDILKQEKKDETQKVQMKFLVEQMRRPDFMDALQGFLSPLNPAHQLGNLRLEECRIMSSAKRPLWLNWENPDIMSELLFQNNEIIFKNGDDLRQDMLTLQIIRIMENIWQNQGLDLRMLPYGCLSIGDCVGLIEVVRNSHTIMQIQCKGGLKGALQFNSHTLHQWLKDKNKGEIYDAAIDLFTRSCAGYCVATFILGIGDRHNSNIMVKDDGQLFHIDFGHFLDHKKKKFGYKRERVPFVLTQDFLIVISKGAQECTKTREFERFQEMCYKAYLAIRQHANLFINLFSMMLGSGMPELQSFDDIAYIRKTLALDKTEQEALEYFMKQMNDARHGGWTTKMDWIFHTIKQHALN
T1 sequence (P27986 whole entry partner): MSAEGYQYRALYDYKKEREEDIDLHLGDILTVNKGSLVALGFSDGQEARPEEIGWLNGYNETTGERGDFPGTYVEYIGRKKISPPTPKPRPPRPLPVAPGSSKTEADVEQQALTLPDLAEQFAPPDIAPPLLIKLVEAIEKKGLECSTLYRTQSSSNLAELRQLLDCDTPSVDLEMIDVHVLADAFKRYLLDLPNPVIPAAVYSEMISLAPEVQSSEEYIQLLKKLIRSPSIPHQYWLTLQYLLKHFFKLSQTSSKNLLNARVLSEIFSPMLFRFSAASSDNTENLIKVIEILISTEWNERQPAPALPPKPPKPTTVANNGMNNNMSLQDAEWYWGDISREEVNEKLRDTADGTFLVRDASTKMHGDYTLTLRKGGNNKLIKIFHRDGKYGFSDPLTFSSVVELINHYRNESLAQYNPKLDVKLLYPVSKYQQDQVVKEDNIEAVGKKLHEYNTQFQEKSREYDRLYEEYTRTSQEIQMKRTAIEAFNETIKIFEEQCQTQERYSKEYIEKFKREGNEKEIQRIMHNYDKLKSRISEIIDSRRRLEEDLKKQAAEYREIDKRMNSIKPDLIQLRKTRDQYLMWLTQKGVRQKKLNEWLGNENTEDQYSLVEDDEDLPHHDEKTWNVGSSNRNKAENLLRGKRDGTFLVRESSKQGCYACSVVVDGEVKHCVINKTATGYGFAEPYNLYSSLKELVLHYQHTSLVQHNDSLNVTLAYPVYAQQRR

Structure (SMILES) | IC50 [1] [nM] | T47D pAKT S473 HTRF IC50 (H1047R): T47D (H1047R) selectivity over SKBR3 (WT) [2] | IC50 (EGF stimulation) [nM] | T47D pAKT S473 HTRF IC50 (H1047R): T47D (H1047R) selectivity over SKBR3 (WT) [3]
Cc1cc([C@@H](C)Nc2c(C(=O)O)cnn2C)c2nc(N3CCOCC3)cc(=O)n2c1 [Compound 390] | > 2000 | C (C denotes ≤5-fold) | – | –
Cc1cc([C@@H](C)Nc2ccccc2-c2ccnnc2)c2nc(N3Cc4ccccc4C3)c(C3CC3)c(=O)n2c1 [Compound 847] | – | – | > 2000 | C (C denotes ≤5-fold)
CCC(Nc1ccccc1S(N)(=O)=O)c1cc(C)cn2c(=O)cc(N3CCOCC3)nc12 (stereo not shown) [Compound 1159] | – | C (C denotes ≤5-fold) | > 2000 | –
Cc1cc(C(C)Nc2ccccc2C(=O)O)c2nc(N3Cc4ccccc4C3)c(C)c(=O)n2c1.O=C(O)C(F)(F)F (stereo not shown) [Compound 1412, 2-((1-(2-(isoindolin-2-yl)-3,7-dimethyl-4-oxo-4H-pyrido[1,2-a]pyrimidin-9-yl)ethyl)amino)benzoic acid trifluoroacetate] | – | A (A denotes >20-fold) | < 100 | –
Cc1cc(C(C)Nc2ccccc2C(=O)O)c2nc(N3CCO[C@H](C)C3)cc(=O)n2c1 (stereo partly shown) [Compound 372] | 100 to 500 | B (B denotes 20-fold≥value>5-fold) | – | –
Cc1cc(C(C)Nc2ccccc2C(=O)O)c2nc(N3CC(Cl)C3)cc(=O)n2c1 (stereo not shown) [Compound 363] | 100 to 500 | A (A denotes >20-fold) | – | –
Cc1cc([C@@H](C)Nc2ccccc2C(=O)O)c2nc(-c3cnc(C)c(Cl)c3)cc(=O)n2c1 [Compound 1157] | – | A (A denotes >20-fold) | 100 to 500 | –
Cc1cc([C@@H](C)Nc2ccccc2C(=O)O)c2nc(-c3ccc4c(c3)c(N)nn4C)c(C)c(=O)n2c1 [Compound 785] | – | – | < 100 | A (A denotes >20-fold)
Cc1cc([C@H](C)Nc2ccccc2C(=O)O)c2nc(N3Cc4ccccc4C3)cc(=O)n2c1 [Compound 403] | > 2000 | C (C denotes ≤5-fold) | – | –
Cc1cc([C@H](C)Nc2ccccc2C(=O)O)c2nc(N3CCC(C)(C)CC3)cc(=O)n2c1 [Compound 362] | > 2000 | C (C denotes ≤5-fold) | – | –
Cc1cc(C(C)Nc2ccccc2C(=O)O)c2nc(-c3ccncc3)c(C)c(=O)n2c1 (stereo not shown) [Compound 1408, 2-((1-(3,7-dimethyl-4-oxo-2-(pyridin-4-yl)-4H-pyrido[1,2-a]pyrimidin-9-yl)ethyl)amino)benzoic acid] | – | A (A denotes >20-fold) | < 100 | –
Cc1cc([C@H](C)N[C@H](C(=O)O)c2ccccc2)c2nc(N3CCOCC3)cc(=O)n2c1 [Compound 650] | – | – | > 2000 | C (C denotes ≤5-fold)
Cc1cc(C(C)Nc2ccccc2C(=O)O)c2nc(-c3c(C)ccc4[nH]ncc34)c(C)c(=O)n2c1 (stereo not shown) [Compound 813] | – | – | > 2000 | C (C denotes ≤5-fold)
Cc1cc(C(C)Nc2ccccc2)c2nc(-c3ccc(F)cc3)c(C)c(=O)n2c1 (stereo not shown) [Compound 1086] | – | C (C denotes ≤5-fold) | > 2000 | –
Cc1cc([C@H](C)Nc2ccccc2C(=O)O)c2nc(N3CCN(C(=O)CN)CC3)cc(=O)n2c1 [Compound 528] | > 2000 | C (C denotes ≤5-fold) | – | –
Cc1cc([C@H](C)Nc2ccccc2CC(=O)O)c2nc(N3CCOCC3)cc(=O)n2c1 [Compound 158] | > 2000 | C (C denotes ≤5-fold) | – | –
Cc1cc(C(C)Nc2ccccc2C(=O)O)c2nc(-n3cnc4cc(O)ccc43)cc(=O)n2c1 (stereo not shown) [Compound 773] | – | – | 500 to 2000 | B (B denotes 20-fold≥value>5-fold)
Cc1cc([C@@H](C)Nc2cccc3onc(O)c23)c2nc(-c3cccc(F)c3)c(C)c(=O)n2c1 (single isomer, unassigned) [Compound 1374] | – | A (A denotes >20-fold) | 100 to 500 | –
Cc1cc([C@@H](C)Nc2cccc3[nH]c(=O)oc23)c2nc(N3CCOCC3)cc(=O)n2c1 [Compound 565] | > 2000 | C (C denotes ≤5-fold) | – | –
C=C(C)C1CCCC(c2cc(=O)n3cc(C)cc([C@@H](C)Nc4ccccc4C(=O)O)c3n2)CC1 (stereo partly shown) [Compound 552] | – | C (C denotes ≤5-fold) | – | –
Cc1cc([C@H](C)Nc2ccccc2C(=O)O)c2nc(-c3ccc(C(F)F)nc3)c(C)c(=O)n2c1 [Compound 1149] | – | C (C denotes ≤5-fold) | > 2000 | –
Cc1cc([C@@H](C)Nc2ccccc2)c2nc(N(C)Cc3ccccc3)c(C)c(=O)n2c1 [Compound 1163] | – | A (A denotes >20-fold) | 100 to 500 | –

Structure (SMILES) | IC50 [1] [nM] | T47D pAKT S473 HTRF IC50 (H1047R): T47D (H1047R) selectivity over SKBR3 (WT) [2] | IC50 (EGF stimulation) [nM] | T47D pAKT S473 HTRF IC50 (H1047R): T47D (H1047R) selectivity over SKBR3 (WT) [3]
Cc1cc([C@@H](C)Nc2ccccc2S(N)(=O)=O)c2nc(-c3ccc(C4CCNCC4)nc3)c(C)c(=O)n2c1 [Compound 1344] | – | B (B denotes 20-fold≥value>5-fold) | – | –
Cc1cc([C@@H](C)N[C@@H](C(=O)O)c2ccccc2)c2nc(N3CCOCC3)cc(=O)n2c1 [Compound 649] | – | – | > 2000 | C (C denotes ≤5-fold)
Cc1cc(C(C)Nc2ccccc2C(=O)O)c2nc(-c3ccc(CN4CCN(C(=O)C5CC5)CC4)c(F)c3)cc(=O)n2c1 (single isomer, unassigned) [Compound 421] | > 2000 | C (C denotes ≤5-fold) | – | –
Cc1cc([C@H](C)Nc2cc(F)cc(F)c2)c2nc(N3CCOCC3)cc(=O)n2c1 [Compound 264] | > 2000 | C (C denotes ≤5-fold) | – | –
Cc1cc([C@H](C)Nc2ccccc2C(=O)O)c2nc(-n3cnc4cc(O)ccc43)cc(=O)n2c1 [Compound 774] | – | – | > 2000 | C (C denotes ≤5-fold)
Cc1cc([C@H](C)Nc2ccccc2C(=O)O)c2nc(-c3ccc(C#CC4(C)CCC4)c(F)c3)c(C)c(=O)n2c1 [Compound 1267] | – | C (C denotes ≤5-fold) | – | –
CC(Nc1ccccc1C(=O)O)c1cc(C(F)(F)F)cn2c(=O)cc(N3Cc4ccccc4C3)nc12 (stereo not shown) [Compound 921] | – | – | > 2000 | C (C denotes ≤5-fold)
Cc1cc([C@H](C)Nc2ccccc2C(=O)O)c2nc(-c3ccnc(C4CC4)c3)cc(=O)n2c1 [Compound 1156] | – | A (A denotes >20-fold) | < 100 | –
COCC1=NC(C#N)C(NCc2ccc(-c3nc4c([C@H](C)Nc5ccccc5C(=O)O)cc(C)cn4c(=O)c3C)cc2F)O1 (stereo partly shown) [Compound 1271] | – | B (B denotes 20-fold≥value>5-fold) | – | –
Cc1cc([C@@H](C)Nc2ccccc2C(=O)O)c2nc(N3C[C@H](C)C[C@H](C)C3)cc(=O)n2c1 (single isomer, unassigned) [Compound 512] | < 100 | A (A denotes >20-fold) | – | –
Cc1cc(C(C)Nc2ccccc2C(=O)O)c2nc(-c3cccc(-c4nn[nH]n4)c3)cc(=O)n2c1 (stereo not shown) [Compound 303] | > 2000 | C (C denotes ≤5-fold) | – | –
Cc1cc([C@@H](C)NCc2cccnn2)c2nc(N3Cc4ccccc4C3)cc(=O)n2c1 [Compound 876] | – | – | > 2000 | C (C denotes ≤5-fold)
Cc1cc([C@@H](C)Oc2ccccc2C(N)=O)c2nc(N3CCOCC3)cc(=O)n2c1 [Compound 562] | > 2000 | C (C denotes ≤5-fold) | – | –
C=CC(=O)Nc1ccc(C(=O)O)c(N[C@@H](C)c2cc(C)cn3c(=O)c(C)c(N4Cc5ccccc5C4)nc23)c1 [Compound 1122] | – | C (C denotes ≤5-fold) | > 2000 | –
Cc1cc([C@H](C)Nc2ccccc2S(N)(=O)=O)c2nc(-c3cccc(C#N)c3)c(C)c(=O)n2c1 [Compound 1035] | – | – | > 2000 | C (C denotes ≤5-fold)
Cc1cc([C@@H](C)Nc2ccccc2C(=O)O)c2cc(-c3ccncn3)cc(=O)n2c1 [Compound 481] | > 2000 | C (C denotes ≤5-fold) | – | –
Cc1cc(C(C)Nc2ccccc2C(=O)O)c2nc(-c3cc(F)cc(C#N)c3)c(C)c(=O)n2c1 (stereo not shown) [Compound 1103] | – | A (A denotes >20-fold) | < 100 | –
Cc1cc(C(C)Nc2ccccc2C(=O)O)c2nc(N3CCC4(CC3)CC(=O)N4)cc(=O)n2c1 (stereo not shown) [Compound 490] | > 2000 | C (C denotes ≤5-fold) | – | –
Cc1cc([C@@H](C)Nc2ccccc2C(=O)O)c2nc(-c3cccc(C(F)F)c3)cc(=O)n2c1 [Compound 1113] | – | C (C denotes ≤5-fold) | > 2000 | –
Cc1cc([C@H](C)Nc2ccccc2C(=O)O)c2nc(-c3ccc4[nH]c(=O)[nH]c4c3)cc(=O)n2c1 [Compound 500] | > 2000 | C (C denotes ≤5-fold) | – | –
Cc1cc([C@@H](C)Nc2ccccc2C(=O)O)c2nc(-c3ccc4c(C)nn(C)c4c3)c(C)c(=O)n2c1 [Compound 927] | – | – | < 100 | A (A denotes >20-fold)
